Paper PMC10452110, “Indole-3-Acetamido-Polyamines as Antimicrobial Agents and Antibiotic Adjuvants” (Biomolecules, 2023)
Where two headings read alike, the source gives them in different places.

Experiments:
[1] = system: P. aeruginosa ATCC 27853; assay: Enhancement of doxycycline action against P. aeruginosa; type: cell-based, Pseudomonas aeruginosa; settings: doxycycline at 4.5 µM
Method: (§1) Antibiotic enhancer concentrations were determined using previously reported protocols.

[2] = system: Staphylococcus aureus (ATCC 25923); assay: Intrinsic antimicrobial activity (MIC) against S. aureus; type: cell-based
Method in brief: (§2)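 MIC values come from two sources: bacteria tested by previously reported protocols, and Candida and Cryptococcus tested at the Community for Open Antimicrobial Drug Discovery under standard conditions.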

[3] = system: E. coli ATCC 25922; assay: Enhancement of erythromycin action against E. coli; type: cell-based, Escherichia coli; settings: erythromycin at 10.9 µM
Method: as §1

[4] = system: Klebsiella pneumoniae (ATCC 700603); assay: Intrinsic antimicrobial activity (MIC) against K. pneumoniae; type: cell-based
[5] = system: Pseudomonas aeruginosa (ATCC 27853); assay: Intrinsic antimicrobial activity (MIC) against P. aeruginosa; type: cell-based
Method in brief: as §2

[6] = system: Candida albicans (ATCC 90028); assay: Intrinsic antifungal activity (MIC) against C. albicans; type: cell-based
Method in brief: (§3)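 Antibacterial MICs by established in-house protocol; yeast MICs run externally at CO-ADD, University of Queensland, per their standard screening protocols.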

[7] = system: MRSA (ATCC 43300); assay: Intrinsic antimicrobial activity (MIC) against MRSA; type: cell-based; settings: Staphylococcus aureus, MRSA ATCC 43300; mean (n = 2); read-out: MIC MRSA
Method in brief: (§4)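 Bacterial susceptibility was determined following previously reported protocols. The antifungal evaluations were carried out at the Community for Open Antimicrobial Drug Discovery (University of Queensland, Australia) under its standard protocols.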

[8] = Cytotoxicity assay; type: cell-based; settings: human; HEK293 cells; mean (n = 2); read-out: Cytotoxicity: concentration of compound at 50% cytotoxicity (IC50)
Method: Cytotoxicity assays were conducted using the protocols previously reported.

[9] = system: Cryptococcus neoformans (ATCC 208821); assay: Intrinsic antifungal activity (MIC) against C. neoformans; type: cell-based
Method in brief: as §3

[10] = system: Acinetobacter baumannii (ATCC 19606); assay: Intrinsic antimicrobial activity (MIC) against A. baumannii; type: cell-based
[11] = system: Escherichia coli (ATCC 25922); assay: Intrinsic antimicrobial activity (MIC) against E. coli; type: cell-based
Method in brief: as §4

[12] = system: human red blood cells; assay: Hemolytic assay; type: cell-based; settings: mean (n = 2)
Method: Hemolysis assays were conducted using the protocols previously reported.

[13] = system: MRSA (CF-Marseille); assay: Real time growth inhibition curves, microdilution MIC and MBC, MRSA (CF-Marseille); type: cell-based, Staphylococcus aureus
Excerpt: (§5) We next assessed the kinetics of antibacterial activity of 15c towards the Gram-positive bacteria S. aureus ATCC 25923 and MRSA (CF-Marseille) by measuring real time growth inhibition curves.

[14] = system: S. aureus ATCC 25923; assay: Real time growth inhibition curves, microdilution MIC and MBC, S. aureus; type: cell-based, Staphylococcus aureus
Excerpt: as §5

[15] = ATCC25923, S. aureus ATCC 25923, mean (n = 3), read-out: MIC S. a
[16] = ATCC700603, K. pneumoniae ATCC 700603, mean (n = 2), read-out: MIC K. p
[17] = ATCC27853, P. aeruginosa ATCC 27853, mean (n = 3), read-out: MIC P. a
[18] = ATCC90028, C. albicans ATCC 90028, mean (n = 2), read-out: MIC C. a
[19] = ATCC208821, C. neoformans ATCC 208821, mean (n = 2), read-out: MIC C. n
[20] = ATCC19606, A. baumannii ATCC 19606, mean (n = 2), read-out: MIC A. b
[21] = ATCC25922, E. coli ATCC 25922, mean (n = 3), read-out: MIC E. c
[22] = lowest tested concentration 6.4 μM

Structure (SMILES)	Dox/P. a fold change (ratio between intrinsic MIC of the test compound and combination MIC) [1]	Dox/P. a: concentration required to restore doxycycline activity (combination MIC) [1]	MIC [2, 15]	Eryth/E. c: concentration required to restore erythromycin activity (combination MIC) [3]	MIC [4, 16]	MIC [5, 17]	MIC [6, 18]	MIC [7]	IC50 [8]	MIC [9, 19]	MIC [10, 20]	MIC [11, 21]	Hemolysis: concentration of compound at 10% hemolytic activity (HC10) [12]	other results
O=C(Cc1c[nH]c2c(F)cccc12)NCCCNCCCCNCCCNC(=O)Cc1c[nH]c2c(F)cccc12.O=C(O)C(F)(F)F.O=C(O)C(F)(F)F [Compound 18a, N^1,N^4-Bis(3-(2-(7-fluoro-1H-indol-3-yl)acetamido)propyl)butane-1,4-diaminium 2,2,2-trifluoroacetate]	4 fold	64.0 µM	16 µM	64.0 µM	> 41 µM	> 256 µM	5.12 µM	< 0.2 µM	> 41 µM	< 0.2 µM	> 41 µM	256 µM	>41 µM	
O=C(Cc1c[nH]c2ccc(Br)cc12)NCCCNCCCCCCCNCCCNC(=O)Cc1c[nH]c2ccc(Br)cc12.O=C(O)C(F)(F)F.O=C(O)C(F)(F)F [Compound 15c, N^1,N^7-Bis(3-(2-(5-bromo-1H-indol-3-yl)acetamido)propyl)heptane-1,7-diaminium 2,2,2-trifluoroacetate]		6.62 µM	12.7 µM	6.62 µM	> 34 µM	106 µM	≤ 0.26 µM	≤ 0.26 µM	> 34 µM	≤ 0.26 µM	> 34 µM	13.2 µM	>34 µM	mode of antibacterial action (MBC versus MIC) [13]: bactericidal; MIC ([13]; Staphylococcus aureus, matches real time growth curve at 18 h, read-out: MIC (classical microdilution methodology)): 12.7 µM; MBC ([13]; Staphylococcus aureus, read-out: minimum bactericidal concentration (MBC)): 12.7 µM; real time growth inhibition ([13]; at 25.4 μM and 12.7 μM): completely inhibited; time after which bacterial growth was detected [13, 22]: > 4 h; mode of antibacterial action (MBC versus MIC) [14]: bactericidal; MIC ([14]; Staphylococcus aureus, ATCC25923, matches real time growth curve at 18 h, read-out: MIC (classical microdilution methodology)): 12.7 µM; MBC ([14]; Staphylococcus aureus, ATCC25923, read-out: minimum bactericidal concentration (MBC)): 12.7 µM; real time growth inhibition ([14]; at 25.4 μM and 12.7 μM): completely inhibited; time after which bacterial growth was detected [14, 22]: > 4 h
COc1ccc2[nH]cc(CC(=O)NCCCNCCCCCCCCCCNCCCNC(=O)Cc3c[nH]c4ccc(OC)cc34)c2c1.O=C(O)C(F)(F)F.O=C(O)C(F)(F)F [Compound 16e, N^1,N^10-Bis(3-(2-(5-methoxy-1H-indol-3-yl)acetamido)propyl)decane-1,10-diaminium 2,2,2-trifluoroacetate]	8 fold	14.1 µM	7.03 µM	28.1 µM	> 36 µM	112 µM	2.25 µM	≤ 0.28 µM	> 36 µM	≤ 0.28 µM	> 36 µM	14.1 µM	>36 µM	
Cc1ccc2[nH]cc(CC(=O)NCCCNCCCCCCCCCCCCNCCCNC(=O)Cc3c[nH]c4ccc(C)cc34)c2c1.O=C(O)C(F)(F)F.O=C(O)C(F)(F)F [Compound 17f, N^1,N^12-Bis(3-(2-(5-methyl-1H-indol-3-yl)acetamido)propyl)dodecane-1,12-diaminium 2,2,2-trifluoroacetate]	1 fold	226 µM	7.06 µM	14.1 µM	> 36 µM	226 µM	≤ 0.28 µM	≤ 0.28 µM	> 36 µM	≤ 0.28 µM	36 µM	14.1 µM	≤0.28 µM	
O=C(Cc1c[nH]c2ccccc12)NCCCNCCCCCCCCCCNCCCNC(=O)Cc1c[nH]c2ccccc12.O=C(O)C(F)(F)F.O=C(O)C(F)(F)F [Compound 14e, N^1,N^10-Bis(3-(2-(1H-indol-3-yl)acetamido)propyl)decane-1,10-diaminium 2,2,2-trifluoroacetate]	4 fold	15.1 µM		15.1 µM				≤ 0.3 µM	> 39 µM				≤0.30 µM	MIC ([2]; ATCC25923, read-out: MIC S. a): 3.77 µM; MIC ([4]; ATCC700603, read-out: MIC K. p): > 39 µM; MIC ([5]; ATCC27853, read-out: MIC P. a): 60.3 µM; MIC ([6]; ATCC90028, read-out: MIC C. a): ≤ 0.3 µM; MIC ([9]; ATCC208821, read-out: MIC C. n): ≤ 0.3 µM; MIC ([10]; ATCC19606, read-out: MIC A. b): > 39 µM; MIC ([11]; ATCC25922, read-out: MIC E. c): 15.1 µM
COc1ccc2[nH]cc(CC(=O)NCCCNCCCCCCCNCCCNC(=O)Cc3c[nH]c4ccc(OC)cc34)c2c1.O=C(O)C(F)(F)F.O=C(O)C(F)(F)F [Compound 16c, N^1,N^7-Bis(3-(2-(5-methoxy-1H-indol-3-yl)acetamido)propyl)heptane-1,7-diaminium 2,2,2-trifluoroacetate]		12.5 µM	> 200 µM	50 µM	> 38 µM	> 200 µM	> 38 µM	> 38 µM	> 38 µM	2.36 µM	> 38 µM	25 µM	>38 µM	
